Laboratory results as given in patent publication US20170280718A1, “HERBICIDAL AND FUNGICIDAL COMPOSITIONS AND THEIR USES” (The Regents of the University of California, priority 2014, published 2017).
“Also recorded” adds a separate entry of the source. Like-named read-outs stand apart in the source and are kept apart here.

Experiments:
GFP-KOR1 = settings: CESTRIN treatment; control average 220 nm/min
[1] = test system: microtubules (TUB-GFP, RFP-TUA5), EB1-GFP, Talin-GFP, CESA6-YFP; assay: Cytoskeleton and CESA marker localization in etiolated hypocotyls (microtubules, EB1, actin, CESA6); type: cell-based, Arabidopsis
Excerpt: (§1) Transgenic lines expressing MAN-YFP (Nebenfuhr et al., 1999), HDEL-GFP (Nelson et al., 2007), VAMP711-YFP (Geldner et al., 2009), NTPP-RFP (Rosado et al.), THE1-GFP (Hematy et al., 2007), CLC-GFP (Konopka et al., 2008), VHA-RFP (Dettmer et al., 2006), VTI12-YFP (Geldner et al., 2009), CFP-SYP61 (Robert et al., 2008), sec-GFP (Goh et al., 2007), CESA6-YFP (Paredez et al., 2006), TUB-GFP (Nakamura et al., 2004), EB1-GFP (Bisgrove et al., 2008) and TALIN-GFP ((Mathur et al., 1999) were used. In addition, the mutant ixr1-1 (Scheible et al., 2001) and prc1-1 (Desnos et al., 1996) were used.
(§2) Confocal images for CFP-SYP61-×CESA3-GFP were obtained using a Leica SP5 microscope using a 63× water objective employing dual channel sequential line scanning. Fluorescent markers were excited at 442 nm (CFP) and 488 nm (GFP). Additional confocal images were obtained using a Zeiss 710 equipped with a 63× oil and a 40× water objective. A 561 nm diode laser was used for propidium iodide (PI, Sigma) and RFP, a 488 nm for GFP, a 514 nm for YFP, and a 405 nm for CFP. Image analysis was performed using a combination of software tools: ImageJ software (version 1.36b; http://rsbweb.nih.gov/ij/), Image Pro Plus (Media Cybernetics, Rockville, Md.), and Imaris (Bitplane, Saint Paul, Minn.).

[2] = test system: ER, Golgi, TGN, early endosomes, vacuole, CLC2-GFP, Theseus-GFP, sec-GFP markers; assay: Specificity: organelle markers and their subcellular localizations in etiolated hypocotyls; type: cell-based, Arabidopsis
Excerpt: as §1
as §2, with “Minn.). […]” for “Minn.).”

[3] = test system: GFP-CESA3 (cellulose synthase complexes, CSCs); settings: 2-hour CESTRIN treatment (15 μM); control 218 nm/min
[4] = test system: GFP-CESA3 and CFP-SYP61 compartments; assay: Colocalization of GFP-CESA3 and CFP-SYP61 compartments, confocal microscopy; type: cell-based, Arabidopsis; settings: versus DMSO; p=0.0013, t-test
Description: as §2
CSCs are enriched in SYP61 associated compartments upon CESTRIN treatment. The apparent redistribution of CSCs in the cell cortex prompted us to further investigate the identity of CESTRIN bodies. Previous studies have shown that CSCs are partially colocalized with SYP61/VHA-a1 in early endosome/TGN compartments (Crowell et al., 2009; Gutierrez et al., 2009). The presence of CESAs in SYP61 vesicles has been established by proteomic analysis (Drakakaki et al., 2012). […] As previously shown, both SYP61 and SYP41/42 partially overlap with CESA6 under mock treatment, however only SYP61 remains partially colocalized after mannitol treatment (Gutierrez et al., 2009). […]

tubulin = assay: MT polymerization assay (in vitro, OD of polymerized tubulin); type: biochemical; settings: 15 μM
Excerpt: The MT polymerization data was obtained using a polymerization assay kit (Cytoskeleton, Inc. Denver Colo.), employing OD measurements of polymerized tubulin as previously described (Shelanski et al., 1973; Lee and Timasheff, 1977).

[5] = test system: Arabidopsis etiolated hypocotyls; assay: Hypocotyl growth measurements of etiolated seedlings; type: in vivo; settings: for IC50: Arabidopsis thaliana; for hypocotyl growth response of prc1-1 mutant: CESA6 mutant prc1-1, 8 μM CESTRIN or 4 nM isoxaben, lower degree than WT Col-0
Description: For growth analysis, seedlings were germinated on AGM containing the chemicals CESTRIN or isoxaben solubilized in DMSO and grown as described above. When the experiment was complete, the plates were scanned using a flatbed scanner (Epson Perfection V300) and hypocotyl lengths were measured using the segmented line tool in the image analysis software, ImageJ (Rasband et al., 1997-2014). Statistical analyses were carried out using the statistical package, R (R Core Team, 2012).

E. coli = assay: Bacterial growth in LB media containing the chemical; type: cell-based; settings: OD over 8 hours
Description: Two mL of Luria-Bertani (LB) media (10 g tryptone, 5 g yeast extract, and 10 g NaCl, pH 7) were inoculated with a single colony of TOP 10 cells and incubated overnight at 37° C. Thirty μL of this culture was then used to inoculate 3 mL of LB media containing the chemical. The OD was measured every 30 minutes over 8 hours using a spectrometer.

[6] = test system: cellulose content in Arabidopsis etiolated seedlings; assay: Cellulose content of etiolated hypocotyls (modified Updegraff method, Anthrone assay); type: in vivo, Arabidopsis thaliana
Description: Etiolated WT Col-0 Arabidopsis thaliana seedlings were grown on AGM containing CESTRIN as described above. Hypocotyls were harvested after 8 days of growth. Cell wall materials were isolated into alcohol insoluble residues (AIR) (Gunl et al., 2010) and cellulose content was estimated using a modified Updegraff method (Updegraff, 1969). Briefly, insoluble trifluoroacetic acid hydrolyzed AIR pellets were quantified using the Anthrone assay as described earlier Viles & Silverman (1949) and Dische (1962).

[7] = test system: Schizosaccharomyces pombe; assay: Yeast growth on solid YPD containing the chemical; type: cell-based; settings: 5 days
Description: Single colonies of Saccharomyces cerevisiae-Y2H Gold and Schizosaccharomyces pombe were grown in liquid yeast extract-peptone-dextrose (YPD) media (10 g yeast extract, 20 g peptone, and 20 g glucose per 1 L of media, pH 7), at 30° C. for 24 hours. Yeast cultures were transferred to 3 mL of YPD to grow until an OD of 0.7 was reached. Ten μL of liquid YPD containing yeast at an OD 0.7 were placed onto solid YPD (10 g yeast extract, 20 g peptone 20 g glucose and 11 g bacto-agar per 1 L of media, pH 7) in a 6 well plate containing the chemicals. Four serial dilutions (1:10) were spotted per well. Plates were incubated at 30° C. for 3 days for Saccharomyces cerevisiae-Y2H Gold and 5 days for Schizosaccharomyces pombe and imaged with a flatbed scanner.

Phytophtora capsici = assay: Phytophthora growth in corn agar media; type: cell-based; settings: 3 weeks in supplemented media
Description: Phytophtora capsici inoculates were grown in corn agar media supplemented either with DMSO or different concentrations of CESTRIN. After 3 weeks cultures were imaged using flatbed scanner.

SMILES: Cc1cc(C(F)(F)F)cc(NNc2c([N+](=O)[O-])cc(C(F)(F)F)cc2[N+](=O)[O-])n1 [CESTRIN, 1-[2,6-dinitro-4-(trifluoromethyl)phenyl]-2-[6-methyl-4-(trifluoromethyl)pyridin-2-yl]hydrazine]
- mean velocity of GFP-KOR1 labelled particles (GFP-KOR1): ~60 nm/min
- localization of 3×Ypet-POM2 (3×Ypet-POM2/CSI1; 2 hours of CESTRIN treatment): localized to the cytoplasm
- motility of POM2 labelled particles (3×Ypet-POM2/CSI1; after 2 hours of treatment): came virtually to a rest
- average motility of POM2 labelled particles (3×Ypet-POM2/CSI1; after about 1.5 hours of treatment, n=106, control ~262 nm/min): 0.273 ×10⁻⁶ cm/s
- morphology or organization of actin (Talin-GFP) ([1]; 15 μM): does not affect
- localization of the end binding protein 1 (EB1-GFP) ([1]; 15 μM (printed 15 JIM)): induced cytoplasmic localization
- MT organization and GFP-CESA3 particle distribution (RFP-TUA5 / GFP-CESA3 seedlings) ([1]; two-hour treatment): causes loss of MT organization and redistribution of GFP-CESA3 particles
- localization of PM-receptor-like kinase Theseus-GFP and secretion marker sec-GFP [2]: neither the localization of the PM-receptor-like kinase Theseus-GFP nor the secretion marker sec-GFP were altered
- morphology of endosomes labeled by CLC2-GFP [2]: unaltered morphology
- average velocity of the GFP-CESA3 particles [3]: 127 nm/min
- enhancement of colocalization of GFP-CESA3 and CFP-SYP61 compartments [4]: ~15%
- in-vitro polymerization of tubulin (tubulin): not affected; also recorded: does not inhibit in vitro tubulin polymerization
- IC50 ([5]; read-out: estimated IC50, anisotropic cell growth): 4.9 µM
- IC50 ([5]; read-out: half maximal inhibitory concentration (IC50), growth inhibition of hypocotyls): 4.85 µM
- hypocotyl growth response of prc1-1 mutant [5]: showed sensitivity
- reduction of hypocotyl growth of WT Col-0 ([5]; WT Col-0, 8 μM CESTRIN vs DMSO, P=0.001): 80%
- reduction of hypocotyl growth of ixr1-1 ([5]; isoxaben-resistant CESA3 mutant ixr1-1, 8 μM CESTRIN vs DMSO, n=16): 62%
- effect on proliferation of bacteria (E. coli): no effect on their proliferation was observed
- Cellulose content, Hypocotyl ([6]; 9 μM, etiolated seedlings, 8 days, DMSO 103.7 ± 6.4): 75.3 ± 2.7 μg/mg AIR
- reduction in cellulose compared to control seedlings ([6]; hypocotyls grown on 9 μM CESTRIN): ~30%
- growth of yeast [7]: inhibited
- Phytophthora capsici growth (Phytophtora capsici): completely inhibited

SMILES: CCC(C)(CC)c1cc(NC(=O)c2c(OC)cccc2OC)on1 [isoxaben, N-[3-(1-Ethyl-1-methylpropyl)-5-isoxazolyl]-2,6-dimethyoxybenzamide, reference compound]
- hypocotyl growth response of prc1-1 mutant [5]: showed sensitivity
- hypocotyl growth of ixr1-1 ([5]; ixr1-1, 4 nM isoxaben vs DMSO, p=0.2): not reduced
